Measured values as given in patent US20240116853A1, “2-HYDROXY-5-[2-(4-(TRIFLUOROMETHYLPHENYL)ETHYLAMINO)]BENZOIC ACID CRYSTAL FORMS AND PREPARATION METHOD THEREFOR” (GNT PHARMA CO., LTD., priority 2020, published 2024).
Converted amounts (≈) assume the structure as drawn.

Assays:
[1] = system: Alzheimer's disease; details: background statement; cited from earlier work
[2] = apparent solubility tested by HPLC; type: physicochemical; details: for Chromatographic peak area: HPLC peak area of the apparent solubility test; for apparent solubility compared with raw material: HPLC, versus crude raw materials
[3] = crystalline form stability test (XRPD after storage at 40° C. and 60% RH for three months); type: physicochemical
Method: In the present disclosure, the experimental conditions of X-ray powder diffraction are as follows. The test was performed by an X-ray powder diffractometer (radiation source Cu-kα, μ=1.5418 Å), and the XRPD spectrum with 2θ value of 3˜40° was scanned. The XRPD spectra of crystalline form I in Example 1 and crystalline form II in Example 2 are shown in FIG. 1 and FIG. 5, respectively, and the XRPD data are shown in Table 1. In order to test the stability of the crystalline form, the crystalline form I in Example 1 and the crystalline form II in Example 2 were subjected to powder diffraction test after being left under 40° C. and 60% relative humidity (RH) conditions for three months, and the results are shown in FIG. 1 and FIG. 5, respectively.
Crystalline form stability test: a certain amount of samples were left under 40° C. and 60% RH conditions for three months, and their powder diffraction results were tested, as shown in FIG. 1.
Crystalline form stability test: a certain amount of samples were left under 40° C. and 60% RH conditions for three months, and their powder diffraction results were tested, as shown in FIG. 5.

| Chromatographic peak area [2] | apparent solubility compared with raw material [2] | Solubility (apparent solubility) ([2]; tested by HPLC) [µg/mL] | crystalline form stability (XRPD characteristic peaks versus initial time) [3] | solubility ([2]; thermodynamic from solid, tested by HPLC) [µg/mL] | SMILES | effect on Alzheimer's disease in clinical trials [1] |
| --- | --- | --- | --- | --- | --- | --- |
|  |  |  |  |  | O=C(O)c1cc(NCCc2ccc(C(F)(F)F)cc2)ccc1O [2-hydroxy-5-[2-(4-(trifluoromethylphenyl)ethylamino)]benzoic acid] | good inhibitory effect on Alzheimer's disease |
| 263684 | higher apparent solubility | 1880 (≈ 5.78 mM) | stable and unchanged |  | O=C(O)c1cc(NCCc2ccc(C(F)(F)F)cc2)ccc1O [Crystalline form I, 2-hydroxy-5-[2-(4-(trifluoromethylphenyl)ethylamino)]benzoic acid] |  |
| 311308 | higher apparent solubility | 2600 (≈ 7.99 mM) | relatively stable |  | O=C(O)c1cc(NCCc2ccc(C(F)(F)F)cc2)ccc1O [Crystalline form II, 2-hydroxy-5-[2-(4-(trifluoromethylphenyl)ethylamino)]benzoic acid] |  |
| 249333 |  |  |  | 1770 (≈ 5.44 mM) | O=C(O)c1cc(NCCc2ccc(C(F)(F)F)cc2)ccc1O [Raw material, 2-hydroxy-5-[2-(4-(trifluoromethylphenyl)ethylamino)]benzoic acid] |  |
